Assay results taken from patent US20230365559A1, “NOVEL AMINOPYRIDINES AND THEIR USE IN TREATING CANCER” (priority 2020, published 2023).
Several values for one entry are separate records, joined by “and”; a condition that tells them apart may be missing. Identical values can stand only once. Entries after “also recorded” stand apart in the source; their conditions may differ.

Columns and labels:
ATM = ATM (Homo sapiens, UniProt Q13315); test: ATM Human PIKK Kinase Enzymatic ELISA/EIA Assay, KinaseProfiler (Eurofins Discovery); assay type: biochemical; conditions: for remaining activity at 1 µM: read-out: ATM, Percent of control at 1 μM; for IC50: KinaseProfiler, Km ATP, Table 15, read-out: Inhibition of PIKK kinase activity ATM
HAP1/PRKDC−/− cells = test: Radiosensitisation of DNA-PK null HAP1/PRKDC−/− cells, regrowth assay; assay type: cell-based, human; conditions: for IC50: Homo sapiens, HAP1; for radiosensitisation / differential growth inhibition of DNA-PK null HAP1 line: 3 Gy, HAP1/PRKDC−/−
human DNA-PK = human DNA-PK (Homo sapiens, UniProt P78527); test: Inhibition of DNA-PKcs kinase activity, HotSpot assay (Reaction Biology), [γ-33P]-ATP phosphorylation of peptide substrate; assay type: biochemical; conditions: 10 μM ATP, 10 μg/ml DNA; mean of two replicates; Table 12; read-out: Inhibition of kinase activity (as IC50) DNA-PK (converted)
human PI3Kα (p110α/p85α) = human PI3Kα (p110α/p85α) (Homo sapiens, UniProt P42336); test: Inhibition of PI3Kα kinase activity, ADP-Glo Assay (Reaction Biology); assay type: biochemical; conditions: 10 μM ATP; mean of two replicates; Table 12; read-out: Inhibition of kinase activity (as IC50) PICK
UT-SCC-54C cells [1] = test: Radiosensitisation of UT-SCC-54C HNSCC cells, regrowth (sulforhodamine B) assay, oxic (Table 16); assay type: cell-based, human; conditions: for IC50: Homo sapiens, read-out: IC50; for S50: compound in combination with 3 Gy of radiation, 50% inhibition of regrowth fraction, UT-SCC-54C; for S50 / radiosensitisation / differential growth inhibition of UT-SCC-54C cells: oxic; for radiosensitisation / differential growth inhibition of UT-SCC-54C cells: 0 or 3 Gy, regrowth assay
HAP1 cells = test: Radiosensitisation of HAP1 wild type cells, regrowth assay; assay type: cell-based, human; conditions: for IC50: Homo sapiens, HAP1, read-out: HAP1 wt IC50; for effect in unirradiated HAP1 cells: 0 Gy; for radiosensitisation / differential growth inhibition of HAP1 cells: 3 Gy cobalt-60 gamma irradiation relative to radiation-only
human mTOR = human mTOR (Homo sapiens, UniProt P42345); test: Inhibition of mTOR kinase activity, HotSpot assay, phosphorylation of 4EPB1; conditions: Inhibition of kinase activity (as IC50) mTOR (nM), 10 μM ATP; mean of two replicates; Table 12
UT-SCC-54C cells [2] = test: Radiosensitisation of UT-SCC-54C HNSCC cells, clonogenic survival, oxic and anoxic (Table 18); assay type: cell-based, human; conditions: for Plating efficiency drug/no drug: no radiation

Sequence of ATM (Q13315 whole entry): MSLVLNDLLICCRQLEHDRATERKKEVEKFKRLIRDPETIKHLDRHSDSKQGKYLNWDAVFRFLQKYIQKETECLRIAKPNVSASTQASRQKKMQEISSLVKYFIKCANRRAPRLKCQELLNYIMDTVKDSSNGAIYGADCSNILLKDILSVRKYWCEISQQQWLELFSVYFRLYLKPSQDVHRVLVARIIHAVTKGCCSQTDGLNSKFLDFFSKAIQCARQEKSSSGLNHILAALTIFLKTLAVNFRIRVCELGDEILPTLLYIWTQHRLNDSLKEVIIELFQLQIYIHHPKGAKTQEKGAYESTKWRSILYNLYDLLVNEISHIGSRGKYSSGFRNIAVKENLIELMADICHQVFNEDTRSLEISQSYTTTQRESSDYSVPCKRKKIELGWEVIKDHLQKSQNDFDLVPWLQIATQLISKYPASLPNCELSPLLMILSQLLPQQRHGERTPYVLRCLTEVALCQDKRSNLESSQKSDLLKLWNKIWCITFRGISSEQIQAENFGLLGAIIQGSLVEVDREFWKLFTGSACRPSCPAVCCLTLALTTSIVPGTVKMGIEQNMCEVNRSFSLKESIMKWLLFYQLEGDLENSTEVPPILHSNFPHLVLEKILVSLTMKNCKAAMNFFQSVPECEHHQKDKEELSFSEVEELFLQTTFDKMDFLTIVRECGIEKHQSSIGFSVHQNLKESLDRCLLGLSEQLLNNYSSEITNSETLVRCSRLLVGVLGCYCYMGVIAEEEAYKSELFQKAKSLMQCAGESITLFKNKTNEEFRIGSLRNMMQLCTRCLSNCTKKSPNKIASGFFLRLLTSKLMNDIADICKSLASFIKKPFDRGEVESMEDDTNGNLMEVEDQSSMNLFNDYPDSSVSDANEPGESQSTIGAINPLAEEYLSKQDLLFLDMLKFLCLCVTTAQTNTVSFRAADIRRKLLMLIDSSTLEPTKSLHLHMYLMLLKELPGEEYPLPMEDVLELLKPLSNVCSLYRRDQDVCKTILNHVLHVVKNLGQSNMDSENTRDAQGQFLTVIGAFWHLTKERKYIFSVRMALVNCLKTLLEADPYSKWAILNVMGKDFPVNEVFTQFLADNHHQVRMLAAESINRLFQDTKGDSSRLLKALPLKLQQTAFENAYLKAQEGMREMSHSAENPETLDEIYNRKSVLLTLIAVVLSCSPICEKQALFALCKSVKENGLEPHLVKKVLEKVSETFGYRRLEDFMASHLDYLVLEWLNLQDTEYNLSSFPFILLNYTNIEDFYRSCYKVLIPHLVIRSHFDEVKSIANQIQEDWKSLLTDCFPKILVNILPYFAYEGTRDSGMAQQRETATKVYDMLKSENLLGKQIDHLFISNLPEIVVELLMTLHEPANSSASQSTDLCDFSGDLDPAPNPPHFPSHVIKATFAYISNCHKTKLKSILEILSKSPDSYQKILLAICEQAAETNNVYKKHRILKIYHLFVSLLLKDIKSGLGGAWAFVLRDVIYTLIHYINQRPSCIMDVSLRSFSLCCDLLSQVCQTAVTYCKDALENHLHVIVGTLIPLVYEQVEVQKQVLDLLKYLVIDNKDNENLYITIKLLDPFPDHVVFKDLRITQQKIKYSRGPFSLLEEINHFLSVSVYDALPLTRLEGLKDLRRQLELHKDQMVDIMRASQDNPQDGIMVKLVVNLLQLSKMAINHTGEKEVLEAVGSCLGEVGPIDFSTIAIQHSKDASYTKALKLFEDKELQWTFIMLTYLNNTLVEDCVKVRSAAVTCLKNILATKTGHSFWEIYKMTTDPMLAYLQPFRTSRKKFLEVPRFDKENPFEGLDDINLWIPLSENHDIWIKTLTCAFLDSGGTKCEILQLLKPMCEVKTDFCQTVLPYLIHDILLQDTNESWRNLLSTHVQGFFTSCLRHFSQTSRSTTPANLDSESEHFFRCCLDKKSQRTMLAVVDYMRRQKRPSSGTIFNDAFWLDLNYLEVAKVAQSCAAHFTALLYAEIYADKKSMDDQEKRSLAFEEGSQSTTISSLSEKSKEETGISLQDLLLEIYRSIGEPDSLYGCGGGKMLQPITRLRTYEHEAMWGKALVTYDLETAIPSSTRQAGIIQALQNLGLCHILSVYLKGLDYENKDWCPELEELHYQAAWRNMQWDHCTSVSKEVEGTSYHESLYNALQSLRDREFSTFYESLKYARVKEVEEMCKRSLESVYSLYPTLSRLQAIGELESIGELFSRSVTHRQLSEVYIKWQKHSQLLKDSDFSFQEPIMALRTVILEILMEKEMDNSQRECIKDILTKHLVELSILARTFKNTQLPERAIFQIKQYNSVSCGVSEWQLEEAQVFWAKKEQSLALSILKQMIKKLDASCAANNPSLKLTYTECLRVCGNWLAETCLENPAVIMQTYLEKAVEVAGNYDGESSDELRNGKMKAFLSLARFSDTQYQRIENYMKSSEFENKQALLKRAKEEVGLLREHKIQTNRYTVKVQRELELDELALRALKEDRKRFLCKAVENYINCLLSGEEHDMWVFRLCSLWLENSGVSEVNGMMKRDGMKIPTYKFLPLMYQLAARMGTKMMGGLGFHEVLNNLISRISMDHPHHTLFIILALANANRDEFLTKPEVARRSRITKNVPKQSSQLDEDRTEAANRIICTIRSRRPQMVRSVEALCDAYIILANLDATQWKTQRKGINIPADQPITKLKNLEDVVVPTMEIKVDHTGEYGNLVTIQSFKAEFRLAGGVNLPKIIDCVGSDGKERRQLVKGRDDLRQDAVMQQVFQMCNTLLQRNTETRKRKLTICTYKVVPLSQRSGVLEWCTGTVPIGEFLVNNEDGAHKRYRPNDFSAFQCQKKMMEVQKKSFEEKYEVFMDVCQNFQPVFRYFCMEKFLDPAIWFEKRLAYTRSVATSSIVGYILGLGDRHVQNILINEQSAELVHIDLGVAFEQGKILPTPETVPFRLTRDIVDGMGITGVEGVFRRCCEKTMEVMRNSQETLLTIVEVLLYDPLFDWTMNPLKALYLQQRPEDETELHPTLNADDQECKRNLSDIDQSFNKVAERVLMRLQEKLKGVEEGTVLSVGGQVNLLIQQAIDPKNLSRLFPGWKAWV
Sequence of human PI3Kα (p110α/p85α) (P42336 whole entry): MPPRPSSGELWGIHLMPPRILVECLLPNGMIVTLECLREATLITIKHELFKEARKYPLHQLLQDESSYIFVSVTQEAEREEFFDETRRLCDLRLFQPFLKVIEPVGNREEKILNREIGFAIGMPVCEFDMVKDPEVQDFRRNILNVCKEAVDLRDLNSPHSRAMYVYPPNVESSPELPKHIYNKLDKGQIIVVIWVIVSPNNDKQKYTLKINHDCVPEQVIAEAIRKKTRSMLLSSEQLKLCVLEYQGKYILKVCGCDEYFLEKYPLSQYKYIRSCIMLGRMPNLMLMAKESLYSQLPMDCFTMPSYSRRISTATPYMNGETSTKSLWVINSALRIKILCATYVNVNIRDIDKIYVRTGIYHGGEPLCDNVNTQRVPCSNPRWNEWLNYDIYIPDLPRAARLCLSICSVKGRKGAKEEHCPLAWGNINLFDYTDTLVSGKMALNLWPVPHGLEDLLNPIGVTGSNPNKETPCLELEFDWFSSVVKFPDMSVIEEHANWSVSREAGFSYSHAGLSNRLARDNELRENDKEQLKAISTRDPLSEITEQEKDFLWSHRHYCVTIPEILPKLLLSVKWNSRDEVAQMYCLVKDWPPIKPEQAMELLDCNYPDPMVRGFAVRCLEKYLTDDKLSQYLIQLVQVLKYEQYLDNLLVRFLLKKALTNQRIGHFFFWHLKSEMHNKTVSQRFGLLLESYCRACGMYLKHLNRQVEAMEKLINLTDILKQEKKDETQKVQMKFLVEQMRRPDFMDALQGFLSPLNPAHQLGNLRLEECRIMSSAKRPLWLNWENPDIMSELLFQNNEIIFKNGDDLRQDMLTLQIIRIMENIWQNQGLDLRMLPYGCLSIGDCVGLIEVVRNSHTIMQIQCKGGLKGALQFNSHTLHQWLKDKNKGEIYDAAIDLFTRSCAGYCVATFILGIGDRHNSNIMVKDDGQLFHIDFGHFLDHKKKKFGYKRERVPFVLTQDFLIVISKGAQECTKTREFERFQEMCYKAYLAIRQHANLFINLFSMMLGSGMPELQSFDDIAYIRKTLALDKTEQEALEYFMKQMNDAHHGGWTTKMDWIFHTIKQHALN
Sequence of human PI3Kα (p110α/p85α) (P27986 whole entry partner): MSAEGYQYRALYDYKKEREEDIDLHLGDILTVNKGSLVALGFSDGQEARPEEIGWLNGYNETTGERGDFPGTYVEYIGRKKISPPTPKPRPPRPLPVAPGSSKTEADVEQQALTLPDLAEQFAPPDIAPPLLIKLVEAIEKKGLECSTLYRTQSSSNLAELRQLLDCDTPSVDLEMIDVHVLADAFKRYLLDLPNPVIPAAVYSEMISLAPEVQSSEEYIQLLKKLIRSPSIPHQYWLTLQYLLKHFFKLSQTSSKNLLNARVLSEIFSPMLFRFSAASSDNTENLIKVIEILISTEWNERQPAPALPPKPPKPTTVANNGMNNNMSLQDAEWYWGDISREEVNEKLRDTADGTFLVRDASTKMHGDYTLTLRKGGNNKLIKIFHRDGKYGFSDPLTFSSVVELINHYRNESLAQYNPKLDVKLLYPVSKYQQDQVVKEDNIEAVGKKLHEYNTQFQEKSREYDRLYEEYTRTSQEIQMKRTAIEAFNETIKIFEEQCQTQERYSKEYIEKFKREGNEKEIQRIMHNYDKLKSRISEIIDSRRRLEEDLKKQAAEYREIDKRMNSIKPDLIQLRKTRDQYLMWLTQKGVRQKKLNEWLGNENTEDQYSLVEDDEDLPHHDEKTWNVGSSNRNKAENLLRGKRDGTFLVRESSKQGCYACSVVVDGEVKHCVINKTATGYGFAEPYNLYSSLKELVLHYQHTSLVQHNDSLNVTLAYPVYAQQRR

Structure (SMILES): Cc1cc(NCCN(C)C)ccc1Nc1cc2c(cn1)n(C)c(=O)n2C1CCCC1 [Compound 56, 1-Cyclopentyl-6-((4-((2-(dimethylamino)ethyl)amino)-2-methylphenyl)amino)-3-methyl-1,3-dihydro-2H-imidazo[4,5-c]pyridin-2-one]
- remaining activity at 1 µM (ATM): 86%

Structure (SMILES): Cn1c(=O)n(C2CCCC2)c2cc(Nc3ccc4ncccc4c3)ncc21 [Compound 63, 1-Cyclopentyl-3-methyl-6-(quinolin-6-ylamino)-1,3-dihydro-2H-imidazo[4,5-c]pyridin-2-one]
- IC50 (ATM): 719 nM

Structure (SMILES): Cn1c(=O)n(C2CCCC2)c2cc(Nc3cnc4ccccc4c3)ncc21 [Compound 64, 1-Cyclopentyl-3-methyl-6-(quinolin-3-ylamino)-1,3-dihydro-2H-imidazo[4,5-c]pyridin-2-one]
- IC50 (ATM): 1100 nM

Structure (SMILES): Cn1c(=O)n(C2CCCC2)c2cc(Nc3cccc4ncccc34)ncc21 [Compound 65, 1-Cyclopentyl-3-methyl-6-(quinolin-5-ylamino)-1,3-dihydro-2H-imidazo[4,5-c]pyridin-2-one]
- remaining activity at 1 µM (ATM): 93%

Structure (SMILES): Cn1c(=O)n(C2CCCC2)c2cc(Nc3cccc4cnccc34)ncc21 [Compound 66, 1-Cyclopentyl-6-(isoquinolin-5-ylamino)-3-methyl-1,3-dihydro-2H-imidazo[4,5-c]pyridin-2-one]
- remaining activity at 1 µM (ATM): 92%

Structure (SMILES): Cc1cc(Nc2cc3c(cn2)n(C)c(=O)n3C2CCCC2)c2ccccc2n1 [Compound 67, 1-Cyclopentyl-3-methyl-6-((2-methylquinolin-4-yl)amino)-1,3-dihydro-2H-imidazo[4,5-c]pyridin-2-one]
- remaining activity at 1 µM (ATM): 88%

Structure (SMILES): Cn1c(=O)n(C2CCCC2)c2cc(Nc3ccc4nccnc4c3)ncc21 [Compound 68, 1-Cyclopentyl-3-methyl-6-(quinoxalin-6-ylamino)-1,3-dihydro-2H-imidazo[4,5-c]pyridin-2-one]
- IC50 (ATM): 940 nM

Structure (SMILES): Cn1c(=O)n(C2CCCC2)c2cc(Nc3ccccn3)ncc21 [Compound 73, 1-Cyclopentyl-3-methyl-6-(pyridin-2-ylamino)-1,3-dihydro-2H-imidazo[4,5-c]pyridin-2-one]
- IC50 (ATM): 275 nM

Structure (SMILES): Cc1cc(Cl)ccc1Nc1cc2c(cn1)n(C)c(=O)n2C1CCOC1 (centres unmarked) [Compound 116, 6-((4-Chloro-2-methylphenyl)amino)-3-methyl-1-(tetrahydrofuran-3-yl)-1,3-dihydro-2H-imidazo[4,5-c]pyridin-2-one]
- IC50 (HAP1/PRKDC−/− cells): > 10 µM
- IC50 (human DNA-PK): 4.9 nM
- IC50 (human PI3Kα (p110α/p85α)): 5.46 µM
- IC50 (UT-SCC-54C cells [1]): > 10 µM
- S50 (UT-SCC-54C cells [1]): 0.06 µM
- IC50 (HAP1 cells): > 10 µM

Structure (SMILES): COc1cc(C)c(Nc2cc3c(cn2)n(C)c(=O)n3C2CCOCC2)cn1 [Compound 126, 6-((6-Methoxy-4-methylpyridin-3-yl)amino)-3-methyl-1-(tetrahydro-2H-pyran-4-yl)-1,3-dihydro-2H-imidazo[4,5-c]pyridin-2-one]
- radiosensitisation / differential growth inhibition of DNA-PK null HAP1 line (HAP1/PRKDC−/− cells): did not radiosensitise
- IC50 (HAP1/PRKDC−/− cells): > 10 µM
- IC50 (human DNA-PK): 9.06 nM
- IC50 (human mTOR): 12600 nM
- IC50 (human PI3Kα (p110α/p85α)): 4.23 µM
- IC50 (UT-SCC-54C cells [1]): > 10 µM
- S50 (UT-SCC-54C cells [1]): 0.32 µM
- effect in unirradiated HAP1 cells (HAP1 cells): little effect
- radiosensitisation / differential growth inhibition of HAP1 cells (HAP1 cells): concentration-dependent radiosensitisation
- IC50 (HAP1 cells): > 10 µM

Structure (SMILES): Cc1nc2cc(C)c(Nc3cc4c(cn3)n(C)c(=O)n4C3CCOCC3)cc2o1 [Compound 132, 6-((2,5-Dimethylbenzo[d]oxazol-6-yl)amino)-3-methyl-1-(tetrahydro-2H-pyran-4-yl)-1,3-dihydro-2H-imidazo[4,5-c]pyridin-2-one]
- radiosensitisation / differential growth inhibition of DNA-PK null HAP1 line (HAP1/PRKDC−/− cells): did not radiosensitise
- IC50 (human DNA-PK): 12.6 nM
- IC50 (human mTOR): 60200 nM
- IC50 (human PI3Kα (p110α/p85α)): 5.57 µM
- IC50 (UT-SCC-54C cells [1]): > 10 µM
- S50 (UT-SCC-54C cells [1]): 0.49 µM
- effect in unirradiated HAP1 cells (HAP1 cells): little effect
- radiosensitisation / differential growth inhibition of HAP1 cells (HAP1 cells): concentration-dependent radiosensitisation

Structure (SMILES): Cc1cc(O)ccc1Nc1cc2c(cn1)n(C)c(=O)n2C1CCOCC1 [Compound 135, 6-((4-Hydroxy-2-methylphenyl)amino)-3-methyl-1-(tetrahydro-2H-pyran-4-yl)-1,3-dihydro-2H-imidazo[4,5-c]pyridin-2-one]
- D1 (radiation dose for 1% surviving fraction) (UT-SCC-54C cells [2]; 0% O2, compound conc 1 μM): 11.5 Gy
- D10 (radiation dose for 10% surviving fraction) (UT-SCC-54C cells [2]; 0% O2, compound conc 1 μM): 6.37 Gy
- SER1 (sensitiser enhancement ratio at 1% surviving fraction) (UT-SCC-54C cells [2]; 0% O2, compound conc 1 μM): 2.07
- SER10 (sensitiser enhancement ratio at 10% surviving fraction) (UT-SCC-54C cells [2]; 0% O2, compound conc 1 μM): 2.47
- Plating efficiency drug/no drug (UT-SCC-54C cells [2]; 0% O2, compound conc 1 μM): 1.12
- D1 (radiation dose for 1% surviving fraction) (UT-SCC-54C cells [2]; 20% O2, compound conc 0.33 μM): 1.37 Gy
- D10 (radiation dose for 10% surviving fraction) (UT-SCC-54C cells [2]; 20% O2, compound conc 0.33 μM): 4.85 Gy
- SER1 (sensitiser enhancement ratio at 1% surviving fraction) (UT-SCC-54C cells [2]; 20% O2, compound conc 0.33 μM): 1.20
- SER10 (sensitiser enhancement ratio at 10% surviving fraction) (UT-SCC-54C cells [2]; 20% O2, compound conc 0.33 μM): 8.09
- Plating efficiency drug/no drug (UT-SCC-54C cells [2]; 20% O2, compound conc 0.33 μM): 0.77
- D10 (radiation dose for 10% surviving fraction) (UT-SCC-54C cells [2]; 20% O2, compound conc 1 μM): 3.15 Gy and 2.88 Gy
- SER1 (sensitiser enhancement ratio at 1% surviving fraction) (UT-SCC-54C cells [2]; 20% O2, compound conc 1 μM): 1.5 and 1.59
- Plating efficiency drug/no drug (UT-SCC-54C cells [2]; 20% O2, compound conc 1 μM): 0.59 and 0.89
- D1 (radiation dose for 1% surviving fraction) (UT-SCC-54C cells [2]; 20% O2, compound conc 3 μM): 2.91 Gy
- D10 (radiation dose for 10% surviving fraction) (UT-SCC-54C cells [2]; 20% O2, compound conc 3 μM): 2.28 Gy
- SER1 (sensitiser enhancement ratio at 1% surviving fraction) (UT-SCC-54C cells [2]; 20% O2, compound conc 3 μM): 1.92
- SER10 (sensitiser enhancement ratio at 10% surviving fraction) (UT-SCC-54C cells [2]; 20% O2, compound conc 3 μM): 5.06
- Plating efficiency drug/no drug (UT-SCC-54C cells [2]; 20% O2, compound conc 3 μM): 0.63
- radiosensitisation, clonogenic survival endpoint (UT-SCC-54C cells [2]; UT-SCC-54C, FIG. 8 and Table 18): concentration-dependent increases in radiosensitisation
- radiosensitisation / differential growth inhibition of DNA-PK null HAP1 line (HAP1/PRKDC−/− cells): did not radiosensitise; also recorded: did not demonstrate any differential growth inhibition
- IC50 (HAP1/PRKDC−/− cells): > 10 µM
- IC50 (human DNA-PK): 5.7 nM and 17.1 nM
- IC50 (human PI3Kα (p110α/p85α)): 3.22 µM and 5.24 µM
- IC50 (UT-SCC-54C cells [1]): > 10 µM
- S50 (UT-SCC-54C cells [1]): 0.93 µM
- effect in unirradiated HAP1 cells (HAP1 cells): little effect
- IC50 (HAP1 cells): > 10 µM

Structure (SMILES): COc1ccc(N(C(=O)OCc2ncc([N+](=O)[O-])n2C)c2cc3c(cn2)n(C)c(=O)n3C2CCOCC2)c(C)c1 [Compound 251, (1-Methyl-5-nitro-1H-imidazol-2-yl)methyl (4-methoxy-2-methylphenyl)(3-methyl-2-oxo-1-(tetrahydro-2H-pyran-4-yl)-2,3-dihydro-1H-imidazo[4,5-c]pyridin-6-yl)carbamate]
- D1 (radiation dose for 1% surviving fraction) (UT-SCC-54C cells [2]; 0% O2, compound conc 1 μM): 19.50 Gy
- D10 (radiation dose for 10% surviving fraction) (UT-SCC-54C cells [2]; 0% O2, compound conc 1 μM): 13.17 Gy
- SER1 (sensitiser enhancement ratio at 1% surviving fraction) (UT-SCC-54C cells [2]; 0% O2, compound conc 1 μM): 1.10
- SER10 (sensitiser enhancement ratio at 10% surviving fraction) (UT-SCC-54C cells [2]; 0% O2, compound conc 1 μM): 1.06
- Plating efficiency drug/no drug (UT-SCC-54C cells [2]; 0% O2, compound conc 1 μM): 1.03
- sensitisation of UT-SCC-54C cells selectively under anoxia (UT-SCC-54C cells [2]; oxic vs anoxic, clonogenic survival, FIGS. 9 and 10): provide sensitisation of UT-SCC-54C cells selectively under anoxia
- IC50 (human DNA-PK): 1260 nM
- IC50 (human mTOR): > 100000 nM
- IC50 (human PI3Kα (p110α/p85α)): > 100 µM
- IC50 (UT-SCC-54C cells [1]): > 10 µM
- S50 (UT-SCC-54C cells [1]): >10 µM
- radiosensitisation / differential growth inhibition of UT-SCC-54C cells (UT-SCC-54C cells [1]): did not display any differential growth inhibition

Structure (SMILES): Cc1cc(Cl)ccc1N(C(=O)OCc1cnc([N+](=O)[O-])n1C)c1cc2c(cn1)n(C)c(=O)n2C1CCOCC1 [Compound 257, (1-Methyl-2-nitro-1H-imidazol-5-yl)methyl (4-chloro-2-methylphenyl)(3-methyl-2-oxo-1-(tetrahydro-2H-pyran-4-yl)-2,3-dihydro-1H-imidazo[4,5-c]pyridin-6-yl)carbamate]
- IC50 (human DNA-PK): 203 nM
- IC50 (human mTOR): > 100000 nM
- IC50 (human PI3Kα (p110α/p85α)): > 100 µM
- IC50 (UT-SCC-54C cells [1]): > 10 µM
- S50 (UT-SCC-54C cells [1]): >10 µM
- radiosensitisation / differential growth inhibition of UT-SCC-54C cells (UT-SCC-54C cells [1]): did not display any differential growth inhibition

Structure (SMILES): COc1ccc(N(C(=O)OCc2cnc([N+](=O)[O-])n2C)c2cc3c(cn2)n(C)c(=O)n3C2CCC(OC)CC2)c(C)c1 (centres unmarked) [Compound 258, (1-Methyl-2-nitro-1H-imidazol-5-yl)methyl (4-methoxy-2-methylphenyl)(1-(4-methoxycyclohexyl)-3-methyl-2-oxo-2,3-dihydro-1H-imidazo[4,5-c]pyridin-6-yl)carbamate]
- IC50 (human DNA-PK): 754 nM
- IC50 (human mTOR): > 100000 nM
- IC50 (human PI3Kα (p110α/p85α)): 39.2 µM
- IC50 (UT-SCC-54C cells [1]): > 10 µM
- S50 (UT-SCC-54C cells [1]): >10 µM
- radiosensitisation / differential growth inhibition of UT-SCC-54C cells (UT-SCC-54C cells [1]): did not display any differential growth inhibition
